Test results as given in patent US7235584B2, “Non-psychotropic cannabinoids” (Pharmos Corporation, priority 2000, dated 2007).

Assays:
[1] = system: rat model of closed head injury; assay: Closed head injury (head trauma) in rats: cerebral edema and Neurological Severity Score; type: in vivo
Text: Severe head injury is associated with high mortality and severe neurological impairment. Animals subjected to head trauma in a controlled fashion serve as models in which to test drugs of therapeutic potential. Test compounds can be evaluated both for improved clinical outcome and for reduction of edema induced by closed head injury. The ability of compounds to reduce the severity of neurological symptoms and to reduce brain edema is considered a measure of their potency in reducing brain damage.
The cerebroprotective effect of PRS-211 compounds was assessed in a model of head trauma (HT) in rats. […] The clinical status of the rats was evaluated 1, 24 and 48 hours after injury along with measuring the extent of cerebral edema. The neurological deficit, assessed by a set of criteria termed the Neurological Severity Score (NSS), is maximal at 1 hour after the initiation of head trauma. […]
The model was described in detail by Shapira et al., Crit. […] During the recovery period, the clinical status was evaluated by a set of criteria (NSS).
Trauma induced a significant decrease in specific gravity (SG) of brain tissue and increase in water content following head injury. […] Tissue pieces (20 mg each) were placed on top of the column and the SG calculated from the equilibrium position in the column, using a standard curve. […]

AMPA binding = AMPA binding to rat forebrain membranes
kainic acid binding = assay: Kainic acid binding to rat forebrain membranes
cannabimimetic activity = conditions: doses several thousand times higher than the ED50 of HU-210; cited from earlier work
PGE2 = assay: Inhibition of prostaglandin (PGE2) synthesis in LPS-stimulated macrophage cell cultures; type: cell-based
Description: The inhibitory effect of the new derivatives of Dexanabinol on prostaglandin synthesis is evaluated in macrophage cell cultures following LPS exposure to induce the inflammatory response. These assays are an indication of the anti-inflammatory activity of the individual analogs.
The inhibitory effect of Dexanabinol new analogs on prostaglandin synthesis was evaluated in macrophage cell cultures. Macrophages were seeded in a 24 well NUNC plates, and incubated with DMEM medium for 24 hours to allow attachment to plastic. The wells were vacuumed and a different new analog is added for 1 hour. Treatments are done in triplicates. Following, LPS was added for a duration of 3–24 extra hours, to induce the inflammatory response. The supernatants were collected and analyzed for PGE2 by enzyme immunoassay technique Biotrak kit (Amersham Pharmacia Biotech).

CCCCCCC(C)(C)c1cc(O)c2c(c1)OC(C)(C)C1CC=C(Cn3ccnc3)CC21.Cl (single isomer, unassigned; (+)) [211,095-000, (+)-(3S ,4S )-6,6-Dimethyl-(1,1-dimethylheptyl)-1-hydroxy-9-(imidazolomethyl)-6a,7,10,10a-tetrahydro-6H-dibenzo[b,d]pyran]
edema formation and BBB disruption ([1]; given 30 min before, immediately after, or 1 and 2 hours after HT): significantly reduces edema formation and BBB disruption | edema and clinical outcome 24 hours after HT ([1]; one dose of 5 mg/kg given 1 hour after the impact): effectively reduced edema and improved the clinical outcome

CCCCCCC(C)(C)c1cc(O)c2c(c1)OC(C)(C)[C@H]1CC=C(CO)CC21 (stereo partly drawn) [211,007-000, 1,1 dimethyl heptyl-(3S,4S)-7-hydroxy-Δ^6-tetrahydrocannabinol]
inhibition of AMPA binding (AMPA binding): unable to inhibit | inhibition of kainic acid binding (kainic acid binding): unable to inhibit | cannabimimetic activity (in words) (cannabimimetic activity): inactive as a cannabimimetic

CCCCCCC(C)(C)c1cc(O)c2c(c1)OC(C)(C)[C@H]1CC=C(Cn3cccn3)C[C@H]21 [211,220-000, (+)-(3S,4S)-6,6-Dimethyl-(1,1-dimethylheptyl)-1-hydroxy-9-(pyrazolomethyl)-6a,7,10,10a-tetrahydro-6H-dibenzo[b,d]pyran]
inhibition at 10 µM (PGE2): 59%
